Tests used:
Type in all cases: in vivo
Cyperus esculentus = experiment: Post-emergence herbicidal action, CYPES; set-up: key: % herbicidal action vs untreated; 100 = plants died, 0 = like control
Method in brief: (§1)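 Visual % damage versus untreated plants, scored about 3 weeks post-spray (100% = dead, 0% = like control). Greenhouse plants in sandy loam were treated at one-leaf stage with WP/EC formulations in water at 600 to 800 l/ha plus 0.2% wetting agent.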

Setaria viridis = experiment: Post-emergence herbicidal action, SETVI; set-up: key: % herbicidal action vs untreated; 100 = plants died, 0 = like control
Method in brief: as §1

Pharbitis purpurea = experiment: Pre-emergence herbicidal action, PHBPU; conditions: dosage 320 g/ha, scored visually after 3 weeks vs untreated controls (100% = plants have died)
Method in brief: (§2)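 Percent damage, assessed visually after 3 weeks and referenced to untreated controls, reflects a pre-emergence treatment. Spray liquid equated to 600 to 800 l/ha with 0.2% wetting agent, applied to the covering soil over seeds in sandy loam.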

Veronica persica = experiment: Pre-emergence herbicidal action, VERPE; set-up: key to Herbicidal action against VERPE: % activity: 100 = plants have died, 0 = like control plants; conditions: for herbicidal activity VERPE: scored visually after 3 weeks vs untreated controls (100% = plants have died)
Method in brief: as §2

Lolium multiflorum = experiment: Pre-emergence herbicidal action, LOLMU; conditions: dosage 320 g/ha, scored visually after 3 weeks vs untreated controls (100% = plants have died)
Source text: 1. Pre-Emergence Herbicidal Action Against Harmful Plants Seeds of monocotyledonous and dicotyledonous weed plants and crop plants are laid out in sandy loam soil in wood-fiber pots and covered with soil. The compounds of the invention, formulated in the form of wettable powders (WP) or as emulsion concentrates (EC), are then applied to the surface of the covering soil in the form of an aqueous suspension or emulsion at a water application rate equating to 600 to 800 l/ha, with addition of 0.2% wetting agent. After the treatment, the pots are placed in a greenhouse and kept under good growth conditions for the trial plants. The damage to the test plants is scored visually after a test period of 3 weeks by comparison with untreated controls (herbicidal activity in percent (%): 100% activity=the plants have died, 0% activity=like control plants). […] The tables below illustrate, in an exemplary manner, the […] herbicidal action of the compounds according to the invention, the herbicidal activity being stated in percent. [table] In the experiments that follow, herbicidal action of numerous inventive compounds and the known compounds that are structurally closest from D1 (WO 2012/028579 A1) and D2 (WO 2018/202535 A1) were compared under the above-specified conditions by the pre-emergence and post-emergence method. The example numbers given in the tables relate to the compounds disclosed in the respective documents. In addition to the compounds disclosed in D1 and D2, the following compounds V-1 to V-14 that are encompassed by D1 or D2 but are not compounds specified therein were used in the comparative experiments: • V-1: 2-(methylsulfanyl)-3-(methylsulfinyl)-N-(1-methyl-1H-tetrazol-5-yl)-4-(trifluoromethyl)benzamide • V-2: 2-(methylsulfanyl)-3-(methylsulfonyl)-N-(1-methyl-1H-tetrazol-5-yl)-4-(trifluoromethyl)benzamide • V-3: 2,3-bis(ethylsulfanyl)-N-(1-methyl-1H-tetrazol-5-yl)-4-(trifluoromethyl)benzamide • V-4: 2-chloro-3-(ethylsulfanyl)-N-(1-methyl-1H-tetrazol-5-yl)-4-(trifluoromethyl)benzamide • V-5: 2-chloro-4-iodo-3-(methylsulfanyl)-N-(1-methyl-1H-tetrazol-5-yl)benzamide • V-6: 2-chloro-4-iodo-3-(methylsulfinyl)-N-(1-methyl-1H-tetrazol-5-yl)benzamide • V-7: 2-chloro-4-iodo-3-(methylsulfonyl)-N-(1-methyl-1H-tetrazol-5-yl)benzamide • V-8: 2-bromo-3-(methylsulfanyl)-N-(1-methyl-1H-tetrazol-5-yl)-4-(trifluoromethyl)benzamide • V-9: 2-bromo-3-(methylsulfinyl)-N-(1-methyl-1H-tetrazol-5-yl)-4-(trifluoromethyl)benzamide • V-10: 2-bromo-3-(methylsulfonyl)-N-(1-methyl-1H-tetrazol-5-yl)-4-(trifluoromethyl)benzamide • V-11: 2-bromo-3-(ethylsulfanyl)-N-(1-methyl-1H-tetrazol-5-yl)-4-(trifluoromethyl)benzamide • V-12: 2-bromo-3-(ethylsulfinyl)-N-(1-methyl-1H-tetrazol-5-yl)-4-(trifluoromethyl)benzamide • V-13: 2-bromo-3-(ethylsulfonyl)-N-(1-methyl-1-1H-tetrazol-5-yl)-4-(trifluoromethyl)benzamide • V-14: 2-cyclopropyl-3-(ethylsulfanyl)-N-(1-methyl-1H-tetrazol-5-yl)-4-(trifluoromethyl)benzamide Herbicidal Pre-Emergence Action: […]

Compound	herbicidal activity PHBPU (Pharbitis purpurea) [%]	herbicidal activity VERPE (Veronica persica; dosage 320 g/ha) [%]	herbicidal action SETVI (Setaria viridis; Dosage 80 g/ha)	also measured
CCSCc1c(C(F)(F)F)ccc(C(=O)Nc2nnnn2C)c1C [Example 1-86]	80	100		herbicidal action CYPES (Cyperus esculentus; post-emergence, dosage 80 g/ha): 80%; herbicidal action SETVI (Setaria viridis; post-emergence, dosage 80 g/ha): 80%
CSCc1c(C(F)F)ccc(C(=O)Nc2nnnn2C)c1C [Example 1-107, 4-(difluoromethyl)-2-methyl-3-[(methylsulfanyl)methyl]-N-(1-methyl-1H-tetrazol-5-yl)benzamide]	90	100	90	
Cc1c(C(=O)Nc2nnnn2C)ccc(C(F)F)c1CS(C)(=O)=O [Example 1-109]	80	80	90	herbicidal action CYPES (Cyperus esculentus; Dosage 80 g/ha): 80
CSCc1c(C(F)(F)F)ccc(C(=O)Nc2nnnn2C)c1SC [Example 1-161]		100	100	herbicidal action CYPES (Cyperus esculentus; Dosage 80 g/ha): 80; herbicidal activity LOLMU (Lolium multiflorum): 90%
CCSCc1c(C(F)F)ccc(C(=O)Nc2nnnn2C)c1SCC [Example 1-191]		100	100	herbicidal activity LOLMU (Lolium multiflorum): 80%
CSCc1c(C(F)(F)F)ccc(C(=O)Nc2nnnn2C)c1F [Example 1-242]		100	90	herbicidal action CYPES (Cyperus esculentus; Dosage 80 g/ha): 80
Cn1nnnc1NC(=O)c1ccc(C(F)(F)F)c(C[S+](C)[O-])c1F (stereo not shown) [Example 1-243]	80	100	100	
Cn1nnnc1NC(=O)c1ccc(C(F)(F)F)c(CS(C)(=O)=O)c1F [Example 1-244]	90	100	100	
Cc1ccc(C(=O)Nc2nnnn2C)c(Cl)c1CS(C)(=O)=O [Example 1-289]		100	90	
CCS(=O)(=O)Cc1c(C(F)(F)F)ccc(C(=O)Nc2nnnn2C)c1Cl [Example 1-301]	100	100	90	
C=CCSCc1c(C(F)(F)F)ccc(C(=O)Nc2nnnn2C)c1Cl [Example 1-308]	100	100		herbicidal action CYPES (Cyperus esculentus; post-emergence, dosage 80 g/ha): 90%; herbicidal action SETVI (Setaria viridis; post-emergence, dosage 80 g/ha): 100%
Cn1nnnc1NC(=O)c1ccc(C(F)(F)F)c(CS(C)(=O)=O)c1Br [Example 1-382, 2-bromo-3-[(methylsulfonyl)methyl]-N-(1-methyl-1H-tetrazol-5-yl)-4-(trifluoromethyl)benzamide]		100	90	Herbicidal action against VERPE (Veronica persica; comparative experiment, 20 g of a.i./ha): 100
Cn1nnnc1NC(=O)c1ccc(Cl)c(CS(C)(=O)=O)c1Cl [Example 1-561]		90	100	herbicidal action CYPES (Cyperus esculentus; Dosage 80 g/ha): 80; herbicidal activity LOLMU (Lolium multiflorum): 80%
CCn1nnnc1NC(=O)c1ccc(S(C)(=O)=O)c(CS(C)(=O)=O)c1C [Example 2-39]			100	herbicidal action CYPES (Cyperus esculentus; Dosage 80 g/ha): 80; herbicidal action VERPE (Veronica persica; dosage 320 g/ha): 100%
CCn1nnnc1NC(=O)c1ccc(C(F)F)c(CSC)c1C [Example 2-107]		100	90	
CCn1nnnc1NC(=O)c1ccc(C(F)(F)F)c(C[S+](C)[O-])c1OC (stereo not shown) [Example 2-135]		100	100	
CCn1nnnc1NC(=O)c1ccc(C(F)(F)F)c(CS(C)(=O)=O)c1OC [Example 2-136]		100	100	

Compound	herbicidal activity PHBPU (Pharbitis purpurea) [%]	herbicidal activity VERPE (Veronica persica; dosage 320 g/ha) [%]	herbicidal action SETVI (Setaria viridis; Dosage 80 g/ha)	also measured
CCn1nnnc1NC(=O)c1ccc(C(F)(F)F)c(CSC)c1SC [Example 2-161]		100		herbicidal action CYPES (Cyperus esculentus; post-emergence, dosage 80 g/ha): 80%; herbicidal action SETVI (Setaria viridis; post-emergence, dosage 80 g/ha): 100%; herbicidal activity LOLMU (Lolium multiflorum): 80%
CCn1nnnc1NC(=O)c1ccc(C(F)(F)F)c(CS(C)(=O)=O)c1SC [Example 2-163]	90	100	90	
CCn1nnnc1NC(=O)c1ccc(C)c(CSC)c1Cl [Example 2-287]		100	90	
CCn1nnnc1NC(=O)c1ccc(C(F)(F)F)c(CS(C)(=O)=O)c1Br [Example 2-382]		100	90	herbicidal activity LOLMU (Lolium multiflorum): 80%
CCCn1nnnc1NC(=O)c1ccc(C(F)(F)F)c(CS(=O)(=O)CC)c1C [Example 3-88]	90	100	90	
CCCn1nnnc1NC(=O)c1ccc(C(F)F)c(CSC)c1C [Example 3-107]		100	90	
CCCn1nnnc1NC(=O)c1ccc(C(F)(F)F)c(CSC)c1OC [Example 3-134]		100	100	
CCCn1nnnc1NC(=O)c1ccc(C(F)(F)F)c(CS(C)(=O)=O)c1OC [Example 3-136]		100	100	
CCCn1nnnc1NC(=O)c1ccc(C(F)(F)F)c(CSC)c1Cl [Example 3-296]		100	90	herbicidal activity LOLMU (Lolium multiflorum): 80%
CCCn1nnnc1NC(=O)c1ccc(C(F)(F)F)c(C[S+](C)[O-])c1Cl (stereo not shown) [Example 3-297]	80	100		herbicidal action CYPES (Cyperus esculentus; post-emergence, dosage 80 g/ha): 80%; herbicidal action SETVI (Setaria viridis; post-emergence, dosage 80 g/ha): 80%
CCCn1nnnc1NC(=O)c1ccc(C(F)(F)F)c(CSCC)c1Cl [Example 3-299]		100	90	herbicidal activity LOLMU (Lolium multiflorum): 90%
CCCn1nnnc1NC(=O)c1ccc(C(F)F)c(CSC)c1Cl [Example 3-320]		100	100	
CCCn1nnnc1NC(=O)c1ccc(C(F)F)c(C[S+]([O-])CC)c1Cl (stereo not shown) [Example 3-324]	90		100	herbicidal action CYPES (Cyperus esculentus; Dosage 80 g/ha): 90
CCCn1nnnc1NC(=O)c1ccc(C(F)(F)F)c(CSC)c1Br [Example 3-380]	90	90	90	
CCCn1nnnc1NC(=O)c1ccc(C(F)(F)F)c(C[S+](C)[O-])c1Br (stereo not shown) [Example 3-381]		100		herbicidal action CYPES (Cyperus esculentus; post-emergence, dosage 80 g/ha): 90%; herbicidal action SETVI (Setaria viridis; post-emergence, dosage 80 g/ha): 90%
CCCn1nnnc1NC(=O)c1ccc(C(F)(F)F)c(CSCC)c1Br [Example 3-383]		100	90	herbicidal activity LOLMU (Lolium multiflorum): 80%
CCCn1nnnc1NC(=O)c1ccc(C(F)(F)F)c(CS(=O)(=O)CC)c1Br [Example 3-385]		100	90	herbicidal activity LOLMU (Lolium multiflorum): 90%

Source: patent US12492173B2, “Herbicidal substituted N-tetrazolyl aryl carboxamides” (Bayer Aktiengesellschaft, priority 2019, dated 2025)
